Consider two sequences from patent US8598125B2, “CDCA1 peptide and pharmaceutical agent comprising the same” (Onco Therapy Science, Inc., priority 2007, dated 2013).

Holding throughout (assay type): cell-based
In one series the test system is peptide-pulsed T2 cells. Put plainly: 51Cr release assay of peptide-induced human CTLs against peptide-pulsed T2 cells. Particulars: CTLs from cancer patient donor 1 and healthy donor 1. An excerpt: (§1) Monocyte-derived DC cells were used as antigen-presenting cells for induction of CTLs in response to HLA-presented peptides. DCs were obtained by previously reported in vitro methods (Suda T, et al. Cancer Sci. 2007; Nakahara S, et al. Cancer Res. 2003; 63:4112-8). Briefly, peripheral blood […] (PBMCs) isolated from HLA-A*0201 positive healthy volunteers and NSCLC patients using a Ficoll-Paque solution (GE Healthcare UK, Ltd., Buckinghamshire, UK) were screened for […] CD14 positive populations using MicroBeads (Miltenyi Biotec, Bergisch Gladbach, Germany). […] Six days after the third peptide stimulation on day 25, the antigen-specific CTL response was evaluated by Chromium (Cr) release assay and IFN-γ ELISPOT assay.
(§2) CTLs were co-cultured at various effector cell/target cell ratios with target cells which are various cancer cell lines and T2 cells with or without peptide pulsing, and ^51Cr release assay and IFN-γ ELISPOT assay were conducted using conventional methods (Komori H, et al., Clin. Cancer Res. 2006; 12:2689-2697; Makita M, et al. Clin. Cancer Res. 2002; 8:2626-31; Yokomine K, et al. Cancer Sci. 2007; 98:1930-5). […] Six hours after incubation, 50 μL of the supernatant was collected from each well, and radioactivity was quantified using a gamma counter. […]

Series [1] relates to COLO201 cells (CDCA1−, HLA-A2+). Put plainly: 51Cr release assay of peptide-induced human CTLs against COLO201. Particulars: cancer patient donor 1 CTLs.
From the text: as §1, §2

Series [2] relates to A549 cells (CDCA1+, HLA-2−). Put plainly: 51Cr release assay of peptide-induced human CTLs against A549. The settings on record: No. 1: cancer patient donor 1 CTLs; No. 4: healthy donor 1 CTLs.
From the text: as §1, §2

The test system of series [3] is PANC1 cells (CDCA1+, HLA-A2+). Briefly: 51Cr release assay of peptide-induced human CTLs against PANC1. Particulars: No. 1: cancer patient donor 1 CTLs; No. 4: healthy donor 1 CTLs.
From the text: as §1, §2

Where no end group is shown, it is not given here.

Take YMMPVNSEV [No. 1, YMMPVNSEV]: the “cytotoxic activity against peptide-pulsed T2 cells” value in the series on peptide-pulsed T2 cells is “showed cytotoxic activity”. Besides, the “cytotoxic activity against COLO201 cells” value in series [1] was “not”. The “cytotoxic activity against A549 cells” value in series [2] is “not”. In addition, the “cytotoxic activity against PANC1 cells” value in series [3] is given as “showed cytotoxic activity”.

In the case of KLATAQFKI [No. 4, KLATAQFKI], the “cytotoxic activity against peptide-pulsed T2 cells” value in the series with peptide-pulsed T2 cells is reported as “showed cytotoxic activity”. Moreover, the “cytotoxic activity against A549 cells” value in series [2] is given as “not”. In series [3], the “cytotoxic activity against PANC1 cells” value is recorded as “showed cytotoxic activity”.
